Source: EP2241555A1, “New RAC1 inhibitors as potential pharmacological agents for heart failure treatment” (UNIVERSITA' DEGLI STUDI DI MILANO, priority 2009, dated 2010)
Where two headings read alike, the source gives them in different places.

Key:
[1] = Caco2 monolayer permeation; type: in vitro ADME, human; settings: human, start concentration 50 µM; for Papp at 90 min, 50 µM: Caco-2, Caco2 monolayers
Protocol: (§1) The permeation characteristics of the Rac1 inhibitors were determined first in the artificial system PAMPA (Parallel Artificial Membrane Permeability Assay) which uses a membrane covered with a lipid to simulate the lipid bilayer of various cell types, including intestinal epithelium and second in vitro across Caco2, a human colon carcinoma cell line seeded as monolayers onto polycarbonate membranes. The PAMPA is able to predict the ability of a compound to permeate by a passive transcellular transport through an artificial lipid layer assembled on a membrane and also allows a classification into low (flux <20%), medium (20%≤ flux ≤70%), and high (flux >70%) absorbing substances. The Caco2 assay provides a well-established in vitro model to predict the human intestinal absorption.

Caco2 = Caco2 monolayer permeation; type: in vitro ADME, human; settings: Caco2 monolayers, 90 min, start concentration 50 µM
Protocol: as §1

HepG2 cells = experiment: Resazurine cytotoxicity assay (metabolic activity), HepG2; type: cell-based, human; settings: for MVC / EC50: HepG2, 24 h; for MVC: maximal viability concentration; for Cytotoxicity-Classification: HepG2, 24 h exposure; for EC50: Homo sapiens, metabolic activity, read-out: EC50
Protocol: (§2) For a pre-screening of the compounds they were first tested in human hepatocellular carcinoma cells (HepG2 cells)for 24 h and to gain further information about the cytotoxic potential more specific target tissues like the mouse cardiomyocytes HL-1 and primary rat cardiomyocytes were used additionally. […] The toxicity classification has been determined by using drugs currently utilized in clinic with known toxicity profile

HL-1 cells = experiment: Apoptosis of ischemic HL-1 cardiomyocytes (TUNEL assay, flow cytometer); type: cell-based, mouse; settings: 100 µM; for Relative rate of apoptosis normalised to control [%]: 8 h ischemia (glucose deficient medium + hydrogen peroxide), 8h Ischemia alone 701.6, 8h Control 100
Protocol: To establish a cardiomyocytes based apoptosis assay, which mimics the post-ischemic damage observed after myocardial infarction, we have utilized a cardiac muscle cell line, HL-1 cells, derived from the AT-1 mouse atrial cardiomyocyte tumor lineage. The HL-1 cells were incubated in glucose deficient medium in the presence of hydrogen peroxide and either in presence or absence of compounds of the invention Apoptosis rate of ischemic HL-1 cells was normalised to the apoptosis rate of the 8h control cells under non-ischemic conditions, thus incubated with normal concentration of glucose in the absence of hydrogen peroxide. Both non-ischemic and ischemic HL-1 cultures were harvested after 8 hours. […] The apoptotic rates were then evaluated by TUNEL assay, a method for detecting DNA strand breaks in apoptotic cells by flow cytometer The solvent of the compounds, i.e DMSO, has no influence on the apoptosis rate. […] Effect of newly synthesized compounds with Rac1 inhibitory activity on apoptosis rate in HL-1 cells normalized to control (TUNEL-assay) The data are representative of two experiments.

[2] = tested on: primary rat cardiomyocytes; experiment: Resazurine cytotoxicity assay (metabolic activity), primary rat cardiomyocytes; type: cell-based; settings: for MVC / EC50: 24 h; for MVC: maximal viability concentration; for Cytotoxicity-Classification: 24 h exposure; for EC50: Cardiomyocyte, metabolic activity
Protocol: as §2

[3] = PAMPA (Parallel Artificial Membrane Permeability Assay); type: in vitro ADME; settings: start concentration 250 µM, diffusion period 16 h
Protocol: as §1
The flux rate of the compounds of the invention and the reference NSC23766 was measured from a donor compartment to an acceptor compartment across the lipid layer at a start concentration of 250 µM over a diffusion period of 16 h.

Rac1 [4] = target: T1, Rac1 (Homo sapiens, UniProt P63000); experiment: G-LISA assay of intracellular Rac1-GTP in PDGF-BB stimulated human smooth muscle cells; type: cell-based; settings: for inhibitory action on Rac1 activity: G-LISA, 50 µM, statement in words; for remaining activity at 50 µM: Concentration 50 µm, 4 hours incubation, then PDGF-BB 10 ng/ml, Rac1-GTP detected relative to control (100), lower = more inhibition, read-out: Rac1 inhibitory activity (% vs control)
T1 construct: endogenous in cells; host or cells: human cultured smooth muscle cells, stimulated with PDGF-BB
Description: The intracellular amount of Rac1-GTP has been determined using the GLISA™ assay (Cytoskeleton, Inc). The GLISA™ assay uses a 96-well plate coated with RBD domain of Rac1-family effector protein PAK1. […] A significant inhibition on Rac1 activity should decrease the intracellular levels of Rac1-GTP and therefore reduce the percentage of Rac1-GTP detected compared to control untreated cells.

HL-1 = experiment: Resazurine cytotoxicity assay (metabolic activity), HL-1; type: cell-based, mouse; settings: for MVC / EC50: HL-1, 24 h; for MVC: maximal viability concentration; for Cytotoxicity-Classification: HL-1, 24 h exposure; for EC50: Mus musculus, metabolic activity
Protocol: as §2

[5] = Metabolic stability and metabolite identification in liver homogenates with cofactors (LC/MS); settings: liver homogenate with cofactors, 10 µM substrate, 60 min
Protocol: (§3) The basic incubation mixture with total volume of 500 µl consisted of the following components. 100 µl liver homogenate, compound in DMSO (dimethyl sulfoxide) and 1 mM NADPH (reduced nicotinamide adenine dinucleotide phosphate), 1 mM UDPGA (uridine 5'-diphosphoglucuronic acid), 1 mM PAPS (3'-phosphoadenosine-5'-phosphosulfate) and 1 mM GSH (glutathione). The substrate concentration used was 10 µM. Two parallel incubations, one with cofactors and one without, were made. Final DMSO concentration in the incubation was 1 µM. […] Reaction was started by addition of a cofactor mixture and stopped by adding 250 µl of ice-cold acetonitrile.

[6] = tissue homogenate, 60 min, 10 µM
Protocol: as §3

Rac1 [7] = target: T1, Rac1; experiment: Classic pull down assay of Rac1-GTP in human cells; type: cell-based; settings: 50 and 100 µM; Figure 2
Protocol: Thus, a classic pull down assay was also performed in human cells incubated with 50 and 100 µM concentration of CWB024/02054

[8] = tested on: major drug metabolising CYPs (including CYP2C19, CYP2D6, CYP3A4); experiment: Inhibition of major drug metabolising CYP activities
Description: The probe metabolites as in experimental For CYP2C19, a=omeprazole demethylation and b=omeprazole 5-hydroxylation; for CYP3A4, a=omeprazole 3-hydroxylation, b= omeprazole sulfonation, c=testosterone 6β-hydroxylation and d= midazolam 1'-hydroxylation.

[9] = Substrate depletion in human liver microsomes and in vitro - in vivo extrapolation; type: in vitro ADME; settings: for CLh: hepatic clearance; for CLh / CLint / CLtot: extrapolated to human from substrate depletion (1 µM, 60 min); for half-life at 1 µM: human, human liver microsomes; for CLint: intrinsic clearance (whole liver); for CLtot: total (systemic) clearance
Protocol: The remaining peak areas after 60 minutes incubation was also determined after incubation with increasing concentrations of compounds CWB021/01039 and CWB024/02054. […] The disappearances for both study compounds were also clearly cofactor dependent and thus metabolism related Calculations of pharmacokinetic (PK) parameters on the basis of substrate depletion for both study compounds (1 µM, 60 min time point) in human liver microsomes are shown in Table 6. Table 6. Kinetic in vitro - in vivo extrapolations of study compound clearances and half-lifes in human, wherein: intrinsic clearance (whole liver) = CLint; hepatic clearance = CLH; total (systemic) clearance = CLtotal; half-life = t1/2.

CYP2D6 = CYP2D6 (Homo sapiens, UniProt P10635); experiment: Inhibition of CYP2D6 activity; type: biochemical; settings: read-out: CYP2D6 activity inhibited by
[10] = 0.1 µM initial substrate concentration
[11] = 1 µM initial substrate concentration
[12] = 10 µM initial substrate concentration

Chain of CYP2D6 (P10635 whole entry): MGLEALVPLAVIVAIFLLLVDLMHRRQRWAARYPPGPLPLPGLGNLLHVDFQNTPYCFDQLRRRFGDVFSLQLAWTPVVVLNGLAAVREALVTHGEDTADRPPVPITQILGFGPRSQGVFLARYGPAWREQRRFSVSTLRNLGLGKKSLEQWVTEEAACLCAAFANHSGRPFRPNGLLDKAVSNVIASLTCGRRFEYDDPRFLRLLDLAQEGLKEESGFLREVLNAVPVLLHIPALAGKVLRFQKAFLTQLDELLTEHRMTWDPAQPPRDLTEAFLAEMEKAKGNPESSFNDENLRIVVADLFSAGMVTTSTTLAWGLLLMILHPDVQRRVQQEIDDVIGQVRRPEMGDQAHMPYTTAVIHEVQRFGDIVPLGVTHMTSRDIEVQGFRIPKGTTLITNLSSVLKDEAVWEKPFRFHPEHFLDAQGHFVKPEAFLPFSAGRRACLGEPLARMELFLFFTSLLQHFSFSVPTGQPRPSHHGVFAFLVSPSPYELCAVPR

| SMILES | Caco2 Classification (Caco2) | MVC (HepG2 cells) [µM] | Cytotoxicity-Classification (HepG2 cells) | EC50 (HepG2 cells) [µM] | Relative rate of apoptosis normalised to control [%] (HL-1 cells) | MVC [2] [µM] | Cytotoxicity-Classification [2] | EC50 [2] [µM] | PAMPA classification [3] | PAMPA flux [%] ± SD [3] [%] | inhibitory action on Rac1 activity (Rac1 [4]) | MVC (HL-1) [µM] | Cytotoxicity-Classification (HL-1) | EC50 (HL-1) [µM] | remaining LC/MS peak area (relative to 0 min incubation samples, %) [6] | Papp at 90 min, 50 µM [1] [×10⁻⁶ cm/s] | remaining activity at 50 µM (Rac1 [4]) [%] | IC50 [8] [µM] | remaining peak area after 60 minutes incubation [9, 10] [%] | remaining peak area after 60 minutes incubation [9, 11] [%] | further results |
| --- | --- | --- | --- | --- | --- | --- | --- | --- | --- | --- | --- | --- | --- | --- | --- | --- | --- | --- | --- | --- | --- |
| CCN(CC)CCCC(C)Nc1nccc(Nc2cnc3ccccc3c2)n1 (centres unmarked) [CWB022/02052, N2-(4-Diethylamino-1-methyl-butyl)-N4-quinolin-3-yl-pyrimidine-2.4-diamine] | medium (compounds with Papp between 1 and 10 are moderately absorbed (20 - 70%)) | 7.8 | ++ (10 µM < EC50 ≤ 100 µM, medium (++)) | 32 | 607.8 | 7.8 | ++ (10 µM < EC50 ≤ 100 µM, medium (++)) | 15 | medium (medium (20%≤ flux ≤70%)) | 34±4 | significant end efficient inhibitory action | 31.2 | ++ (10 µM < EC50 ≤ 100 µM, medium (++)) | 60 |  |  |  |  |  |  | Papp at 1.5 h, 50 µM ([1]; Caco-2, Caco2 monolayers, 90 min): 8.9 ± 2.7 ×10⁻⁶ cm/s; remaining LC/MS peak area (relative to 0 min incubation samples, %) [5]: 5% |
| c1cc(NCc2ccc3[nH]ccc3c2)nc(NCc2ccc3[nH]ccc3c2)n1 [CWB020/01041, N2,N4-Bis-(1H-indol-5-ylmethyl)-pyrimidine-2,4-diamine] | high (compounds with a Papp >10 are predicted to be well absorbed (70 - 100%)) | 7.8 | ++ (10 µM < EC50 ≤ 100 µM, medium (++)) | 64 |  | 3.9 | ++ (10 µM < EC50 ≤ 100 µM, medium (++)) | 17 | high (high (flux >70%)) | 54±4 | significant end efficient inhibitory action | 15.6 | ++ (10 µM < EC50 ≤ 100 µM, medium (++)) | 39 | 33-41% | 65.9 ± 3.1 | 17.1 |  |  |  |  |
| CCN(CC)CCCC(C)Nc1nccc(Nc2ccc3[nH]ccc3c2)n1 (centres unmarked) [CWB024/02054, N2-(4-Diethylamino-1-methyl-butyl)-N4-(1H-indol-5-yl)-pyrimidine-2,4-diamine] | high (compounds with a Papp >10 are predicted to be well absorbed (70 - 100%)) | 7.8 | ++ (10 µM < EC50 ≤ 100 µM, medium (++)) | 33 | 319.4 | 1.9 | ++ (10 µM < EC50 ≤ 100 µM, medium (++)) | 17 | low (low (flux <20%)) | 6±2 | significant end efficient inhibitory action | 7.8 | ++ (10 µM < EC50 ≤ 100 µM, medium (++)) | 56 | about 91% | 32.1 ± 12.4 | 58.3 | > 10 | 76 | 87 | reduced the intracellular content of Rac1-GTP (Rac1 [7]): over 90%; reduction of relative apoptosis (HL-1 cells; versus 8 h ischemia): approximately 50%; remaining peak area after 60 minutes incubation [9, 12]: 86%; CLh [9]: 10.63 L/h; half-life at 1 µM [9]: 10.3 h; CLint [9]: 0.2 L/min; CLtot [9]: 10.81 L/h; inhibition at 10 µM (CYP2D6): 30% |
| CCN(CC)CCCC(C)Nc1nccc(Nc2ccc3[nH]c(C)cc3c2)n1 (centres unmarked) [CWB021/01039, N2-(4-Diethylamino-1-methyl-butyl)-N4-(2-methyl-1H-indol-5-yl)-pyrimidine-2,4-diamine] | high (compounds with a Papp >10 are predicted to be well absorbed (70 - 100%)) | 7.8 | ++ (10 µM < EC50 ≤ 100 µM, medium (++)) | 21 | 511.6 | 31.3 | ++ (10 µM < EC50 ≤ 100 µM, medium (++)) | 13 | low (low (flux <20%)) | 5±1 | significant end efficient inhibitory action | 31.2 | ++ (10 µM < EC50 ≤ 100 µM, medium (++)) | 24 | 33-41% | 17.1 ± 12.5 | 81.1 | > 10 | 69 | 81 | remaining peak area after 60 minutes incubation [9, 12]: 95%; CLh [9]: 15.14 L/h; half-life at 1 µM [9]: 7.3 h; CLint [9]: 0.31 L/min; CLtot [9]: 15.32 L/h; inhibition at 10 µM (CYP2D6): 35% |
